The results in this text go back to EP0973746B1, “SUBSTITUTED 3-CYANO QUINOLINES” (Wyeth Holdings Corporation, priority 1997, dated 1998).

Each structure is given as a SMILES string. Where “and” joins values, the source holds several entries; their conditions need not be identical. Equal values may be shown once.

In this test the target is recombinant human MEK 1 (MAPKK) and recombinant human ERK2 (MAPK). Kind of test: Mitogen Activated Protein Kinase (MAPK) assay, two component coupled MEK 1 / ERK2.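 Further: MEK 1-activated ERK2 phosphorylates MBP or Myc peptide with 33P-ATP, filter capture and scintillation counting, inhibitor preincubated with ERK2 30 min at 0 °C, inhibition relative to uninhibited control.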 It counts as biochemical. Particulars: separate entries for the same compound = evaluated more than one time.
In the case of `COCCOc1ccc2ncc(C#N)c(Nc3cccc(N(C)C)c3)c2c1OCCOC` [Example 117], the IC50 is 40 µM and 28 µM. Then `COc1cc2ncc(C#N)c(Nc3ccc(F)c(Cl)c3)c2cc1OCCCN1CCOCC1` [Example 125], with more than 100 µM.

Turning to `COc1cc2ncc(C#N)c(Nc3cccc(Br)c3)c2cc1OCCCN1CCOCC1` [Example 126], the IC50 was more than 100 µM. As for `N#Cc1cnc2ccc([N+](=O)[O-])cc2c1Nc1cccc(I)c1` [Example 131, 4-[(3-Iodophenyl)amino]-6-nitro-3-quinolinecarbonitrile], the IC50 is more than 100 µM. `Cc1cccc(Nc2c(C#N)cnc3ccc([N+](=O)[O-])cc23)c1` [Example 134]: the half-inhibitory concentration (IC50) is > 100 µM and 80 µM. The figure for `N#Cc1cnc2ccc(N)cc2c1Nc1cccc(Cl)c1` [Example 136, 6-Amino-4-[(3-chlorophenyl)amino]-3-quinolinecarbonitrile] is 70 µM and > 100 µM; for `COc1cccc(Nc2c(C#N)cnc3ccc(N)cc23)c1` [Example 141, 6-Amino-4-[(3-methoxyphenyl)amino]-3-quinolinecarbonitrile] it is 35 µM; for `N#Cc1cnc2ccc(N)cc2c1Nc1ccc(F)c(Cl)c1` [Example 149, 6-Amino-4-[(3-chloro-4-fluorophenyl)amino]-3-quinolinecarbonitrile] it is 2 µM and 4 µM. In the case of `N#Cc1cnc2ccc([N+](=O)[O-])cc2c1Nc1ccc(F)c(Cl)c1` [Example 150, 4-[(3-chloro-4-fluorophenyl)amino]-6-nitro-3-quinolinecarbonitrile], the IC50 was more than 100 µM. Consider `N#Cc1cnc2ccc([N+](=O)[O-])cc2c1Nc1ccc(Br)cc1` [Example 153, 4-[(4-Bromophenyl)amino]-6-nitro-3-quinolinecarbonitrile], for which the concentration for half-maximal inhibition (IC50) was more than 100 µM.

With `N#Cc1cnc2ccc([N+](=O)[O-])cc2c1Nc1ccc(Sc2ccccc2)c(Cl)c1` [Example 159, 4-[(3-Chloro-4-thiophenoxyphenyl)amino]-6-nitro-3-quinolinecarbonitrile], the IC50 is more than 100 µM. Consider `CN(C)CC#CC(=O)Nc1ccc2ncc(C#N)c(Nc3ccc(F)c(Br)c3)c2c1` [Example 197, N-[4-[(3-Bromo-4-fluorophenyl)amino]-3-cyano-6-quinolinyl]-4-dimethylamino-2-butynamide], for which the IC50 came to 35 µM.

In the case of `COc1cc2ncc(C#N)c(Nc3ccc(C)c(Br)c3)c2cc1OC` [Example 248, 4-(3-Bromo-4-methyl-phenylamino)-6.7-dimethoxy-quinoline-3-carbonitrile], the 50% inhibitory concentration (IC50) is 8 µM. The figure for `CCOc1cc2ncc(C#N)c(Nc3cccc(C(C)=O)c3)c2cc1OCC` [Example 257, 4-(3-acetylphenylamino)-6,7-diethoxy-3-quinolinecarbonitrile] is more than 100 µM; for `COc1cc2ncc(C#N)c(Nc3cccc(NC(C)=O)c3)c2cc1OC` [Example 265, 4-(3-Acetamidophenylamino)-6,7-dimethoxy-3-quinolinecarbonitrile] it is 20 µM; for `CC#CC(=O)Nc1cccc(Nc2c(C#N)cnc3cc(OC)c(OC)cc23)c1` [Example 266, 4-[3-(2-Butynoylamino)phenylamino]1-6,7-dimethoxy-3-quinolinecarbonitrile] it is more than 100 µM. Regarding `COc1cc2ncc(C#N)c(Nc3cccc(CCl)c3)c2cc1OC` [Example 268, 4-[3-(Chloromethyl)phenylamino]-6,7-dimethoxy-3-quinolinecarbonitrile], the half-inhibitory concentration (IC50) was determined as 15 µM. As for `COc1cc2ncc(C#N)c(Nc3cc(C)c(O)c(C)c3)c2cc1OC` [Example 288, 4-(4-Hydroxy-3,5-dimethyl-phenylamino)-6,7-dimethoxy-quinoline-3-carbinitile], the IC50 was determined as 16 µM. On to `COc1cc2ncc(C#N)c(Nc3cccnc3)c2cc1OC` [Example 293, 6,7-Dimethoxy-4-(pyridin-3-ylamino)-quinoline-3-carbonitrile], for which the IC50 is more than 100 µM.

As to `COc1cc2ncc(C#N)c(Nc3ccc(O)cc3Cl)c2cc1OC` [Example 296, 4-(2-Chloro-4-hydroxy-phenylamino)-6,7-dimethoxy-quinoline-3-carbonitrile], the half-inhibitory concentration (IC50) was found to be 3.5 µM. Consider `COc1cc2ncc(C#N)c(Nc3ccc(SC)cc3)c2cc1OC` [Example 298, 6.7-Dimethoxy-4-(4-methylsulfanyl-phenylamino)-quinoline-3-carbonitrile], for which the half-maximal inhibitory concentration (IC50) is less than 1 µM. Regarding `COc1cc2ncc(C#N)c(Nc3ccc(CCO)cc3)c2cc1OC` [Example 299, 4-[4-(2-Hydroxy-ethyl)-phenylamino]-6,7-dimethoxy-quinoline-3-carbonitrile], the 50% inhibitory concentration (IC50) is more than 100 µM.

As for `COc1cc2ncc(C#N)c(Nc3ccc(O)cc3O)c2cc1OC` [Example 300, 4-(2,4-Dihydroxy-phenylamino)-6,7-dimethoxy-quinoline-3-carbonitrile], the half-inhibitory concentration (IC50) is 20 µM. Then `COc1cc2ncc(C#N)c(Nc3ccccc3CCO)c2cc1OC` [Example 301, 4-[2-(2-Hydroxy-ethyl)-phenylamino]-6,7-dimethoxy-quinoline-3-carbonitrile], with 12 µM; and `CCCOc1cc2ncc(C#N)c(Nc3cccc(Br)c3)c2cc1OCCC` [Example 303, 4-(3-Bromophenylamino)-6.7-di-n-propoxy-3-quinolinecarbonitrile], with more than 100 µM; and `CCCCOc1cc2ncc(C#N)c(Nc3cccc(Br)c3)c2cc1OCCCC` [Example 305, 4-(3-Bromophenylamino)-6,7-di-n-butoxy-3-quinolinecarbonitrile], with more than 100 µM. The figure for `COc1cc2ncc(C#N)c(Nc3cc(O)c(Cl)cc3F)c2cc1OCCCN1CCOCC1` [Example 323, 4-(4-Chloro-2-fluoro-5-hydroxy-phenylamino)-7-methoxy-6-(3-morpholin-4-yl)-propoxyl-quinoline-3-carbonitrile] is 15 µM.

Regarding `COCc1cc2ncc(C#N)c(Nc3cccc(Br)c3)c2cc1COC` [Example 325, 4-(3-Bromophenylamino)-6,7-di-methoxymethyl-3-quinolinecarbonitrile], the half-maximal inhibitory concentration (IC50) is more than 100 µM. Take `COc1cc2ncc(C#N)c(Nc3cccc(CO)c3C)c2cc1OC` [Example 333, 4-(3-Hydroxymethyl-2-methylphenylamino)-6,7-dimethoxyquinoline-3-carbonitrile]: the IC50 came out at 10 µM.

With `COc1cc2ncc(C#N)c(Nc3cccc(O)c3)c2cc1OC` [Example 339, 4-(3-Hydroxy-phenylamino)-6,7-dimethoxy-quinoline-3-carbonitrile], the 50% inhibitory concentration (IC50) is 65 µM and 50 µM. Then `COc1cc2ncc(C#N)c(Nc3ccc(C)cc3)c2cc1OC` [Example 340, 4-(4-methyl-phenylamino)-6,7-dimethoxy-quinoline-3-carbonitrile], with more than 100 µM; and `COc1cc([N+](=O)[O-])cc2c(Nc3ccc(C)c(O)c3)c(C#N)cnc12` [Example 341, 4-(3-Hydroxy-4-methyl-phenylamino)-8-methoxy-6-nitro-quinoline-3-carbonitrile], with more than 100 µM. For the molecule `COc1cc([N+](=O)[O-])cc2c(Nc3ccc(Cl)cc3F)c(C#N)cnc12` [Example 342, 4-(4-chloro-2-fluoro-phenylamino)-8-methoxy-6-nitro-quinoline-3-carbonitrile], the IC50 was more than 100 µM. The figure for `COc1ccc(Nc2c(C#N)cnc3c(OC)cc([N+](=O)[O-])cc23)cc1O` [Example 343, 4-(3-hydroxy-4-methoxy-phenylamino)-8-methoxy-6-nitro-quinoline-3-carbonitrile] is 60 µM; for `COc1cc(N)cc2c(Nc3ccc(C)c(O)c3)c(C#N)cnc12` [Example 344, 6-Amino-4-(3-hydroxy-4-methyl-phenylamino)-8-methoxy-quinoline-3-carbonitrile] it is more than 100 µM. The figure for `COc1ccc(Nc2c(C#N)cnc3c(OC)cc(N)cc23)cc1O` [Example 345, 6-Amino-4-(3-hydroxy-4-methoxy-phenylamino)-8-methoxy-quinoline-3-carbonitrile] is more than 100 µM; for `CC#CC(=O)Nc1ccc2ncc(C#N)c(Nc3cccc(I)c3)c2c1` [Example 348, N-{3-Cyano-4-[(3-iodophenyl)amino]-6-quinolinyl}-2-butynamide] it is > 100 µM and 80 µM; for `C=CC(=O)Nc1ccc2ncc(C#N)c(Nc3cccc(C)c3)c2c1` [Example 349, N-{3-Cyano-4-[(3-methylphenyl)amino]-6-quinolinyl]-2-propenamide] it is more than 100 µM. Then `C=CC(=O)Nc1ccc2ncc(C#N)c(Nc3ccc(Sc4ccccc4)c(Cl)c3)c2c1` [Example 351, N-{4-[(3-Chloro-4-thiophenoxyphenyl)amino]-3-cyano-6-quinoliny}-2-propenamide], with 32 µM.

`CC#CC(=O)Nc1ccc2ncc(C#N)c(Nc3cccc(Cl)c3)c2c1` [Example 353, N-{4-[(3-Chlorophenyl)amino]-3-cyano-6-quinolinyl}-2-butynamide]: the 50% inhibitory concentration (IC50) was determined as 40 µM. With `CC#CC(=O)Nc1ccc2ncc(C#N)c(Nc3cccc(C(C)C)c3)c2c1` [Example 354, N-{3-Cyano-4-[(3-isopropylphenyl)amino]-6-quinolinyl}-2-butynamide], the IC50 was more than 100 µM. As for `C=CC(=O)Nc1ccc2ncc(C#N)c(Nc3cccc(C(C)C)c3)c2c1` [Example 355, N-{3-Cyano-4-[(3-isopropylphenyl)amino]-6-quinolinyl}-2-propenamide], the IC50 was determined as 45 µM. `CC(C)c1cccc(Nc2c(C#N)cnc3ccc(N)cc23)c1` [Example 356, 6-Amino-4-[(3-isopropylphenyl)amino]-3-quinolinecarbonitrile]: the IC50 is more than 100 µM. The figure for `CC(C)c1cccc(Nc2c(C#N)cnc3ccc([N+](=O)[O-])cc23)c1` [Example 357, 4-[(3-Isopropylphenyl)amino]-6-nitro-3-quinolinecarbonitrile] is more than 100 µM; for `COc1cc2ncc(C#N)c(Nc3cccc(N=[N+]=[N-])c3)c2cc1OC` [Example 359, 4-(3-Azido-phenylamino)-6,7-dimethoxy-quinoline-3-carbonitrile] it is more than 100 µM. `N#Cc1cnc2ccc([N+](=O)[O-])cc2c1Nc1ccc(Cl)c(Cl)c1` [Example 362, 4-[(3.4-dichlorophenyl)amino]-6-nitro-3-quinolinecarbonitrile]: the IC50 was more than 100 µM.

Broadly, the IC50 is the concentration at which inhibition is half-maximal.
